Source: patent US8663643B2, “Combinations of an anti-HER2 antibody-drug conjugate and chemotherapeutic agents, and methods of use” (Genentech, Inc., priority 2008, dated 2014)
Where “and” joins values, the source holds several entries; their conditions need not be identical. Equal values may be shown once.

How the values were obtained:
[1] = tested on: MDA-MB-361.1 mammary tumor; test: MDA-MB-361.1 mammary tumor xenograft in CRL nu/nu mice; assay type: in vivo
Protocol: (§1) The efficacy of the combinations of the invention may be measured in vivo by implanting allografts or xenografts of cancer cells in rodents and treating the tumors with the combinations.
(§2) Tumor incidence (TI) was determined based on the number of measurable tumors remaining in each group at the end of the study. A partial response (PR) was defined as more than 50% but less than 100% reduction in tumor volume, compared with the starting tumor volume, observed for three consecutive measurements. A complete response (CR) was defined as a 100% reduction in tumor volume, compared with the initial tumor volume, observed for three consecutive measurements. Data were analyzed and p-values were determined using the Dunnett's t-test with JMP statistical software, version 5.1.2 (SAS Institute; Cary, N.C.). Individual tumor volumes at end of study and mean tumor volume±SEM values were calculated using JMP statistical software, version 5.1.2. Body weight data were graphed based on the mean percentage of change from initial body weights±SEM.

[2] = tested on: MMTV-Her2 Fo5 transgenic mammary tumor; test: MMTV-Her2 Fo5 transgenic mammary tumor in Harlan athymic nude mice; assay type: in vivo; settings: for single agent efficacy vs vehicle: FIG. 14, lapatinib 101 mg/kg po bid×21, pertuzumab 40 mg/kg iv qwk×4, B20-4.1 5 mg/kg ip 2×/wk×4, T-DM1 15 mg/kg iv q3wk; for efficacy vs vehicle by both time to tumor doubling and time to tumor endpoint: ABT-869 15 mg/kg, T-DM1 either 7.5 or 15 mg/kg
Protocol: as §1
The time to tumor doubling was measured by Kaplan-Meier statistical analysis as 2× Vo. Time to tumor doubling and survival analysis were quantified by Log-rank-p values. Time to progression is measured as the elapsed time for tumor volume to reach 1000 mm^3, or the survival time if 1000 mm^3 tumor volume is not reached.
(§3) Animals suitable for transgenic experiments can be obtained from standard commercial sources. Groups of female CB-17 SCID beige mice (Charles River Laboratory) were implanted with 3 million KPL-4 (Her2 overexpressing) breast cancer cells with matrigel in the mammary fat pad. Groups of female athymic nude mice (Charles River Laboratory or Harlan) were implanted with 2×2 mm3 fragments of MMTV-Her2 Fo5 transgenic breast tumors in the mammary fat pad. Mouse xenografts were dosed at day 0 with drug, drug combination, or vehicle according to the schedule specified for each tumor model. […] Tumor sizes were recorded twice weekly over the course of the study. Mouse body weights were also recorded twice weekly, and the mice were observed regularly. […] Tumor inhibition graphs were plotted using KaleidaGraph, Version 3.6 (Synergy Software; Reading, Pa.). The tumor volume was calculated with formula: Tumor size (mm^3)=[…]
as §2

[3] = phase I study of GDC-0941 as a single agent; assay type: in vivo, human; settings: 60 mg qd
[4] = tested on: phospho-Akt, phospho-ERK, Rb, PRAS40, phospho-histone H3, cyclin B1, PARP, Bcl-XL, caspases 3 and 7; test: biochemical analyses of biomarkers; assay type: cell-based
KPL-4 tumors = test: KPL-4 tumor xenograft in SCID beige mice; assay type: in vivo; settings: for complete responses (CR) / partial responses (PR): FIG. 10
Protocol: Pertuzumab was dosed on days 0, 7, and 14.
Pertuzumab was dosed on days 0, 7, 14, 21 (qwk×4. 5-FU was dosed on days 0, 7 and 14 (qwk×3). B20-4.1 was dosed on days 0, 3, 7, 10, 14, 17, 21 and 24 (2×/wk×8 total).
as §1, §3, §2

[5] = tested on: MMTV-HER2 Fo5 transgenic mammary tumor; test: MMTV-HER2 Fo5 transgenic mammary tumor in CRL nu/nu mice; assay type: in vivo; settings: FIG. 34; T-DM1 10 mg/kg iv q3wk; 5-FU 100 mg/kg po qwk×2; combination T-DM1 5 mg/kg + 5-FU 100 mg/kg; 42 day time point
Protocol: B20-4.1 was dosed on days 0, 3, 7, 10, 14, 17, 21 and 24 (2×/wk×4 for 8 total).
[…] Gemcitabine was dosed on days 0, 3, 6 and 9 (q3d×4).
The efficacy of the combinations of the invention may be measured in vivo by implanting allografts or xenografts of cancer cells in rodents and treating the tumors with the combinations. Variable results are to be expected depending on the cell line, the presence or absence of certain mutations in the tumor cells, the sequence of administration of trastuzumab-MCC-DM1 and chemotherapeutic agent, dosing regimen, and other factors. Subject mice were treated with drug(s) or control (Vehicle) and monitored over several weeks or more to measure the time to tumor doubling, log cell kill, and tumor inhibition (Example 3). FIGS. 10-17 and 34-37 show the efficacy of trastuzumab-MCC-DM1 in combinations with chemotherapeutic agents by xenograft tumor inhibition in mice.
Animals suitable for transgenic experiments can be obtained from standard commercial sources. Groups of female CB-17 SCID beige mice (Charles River Laboratory) were implanted with 3 million KPL-4 (Her2 overexpressing) breast cancer cells with matrigel in the mammary fat pad. Groups of female athymic nude mice (Charles River Laboratory or Harlan) were implanted with 2×2 mm3 fragments of MMTV-Her2 Fo5 transgenic breast tumors in the mammary fat pad. Mouse xenografts were dosed at day 0 with drug, drug combination, or vehicle according to the schedule specified for each tumor model. 5-FU, gemcitabine, carboplatin and B20-4.1 were administered intraperitoneal, pertuzumab was given either intravenously or intraperitoneal as indicated, trastuzumab-MCC-DM1 and docetaxel were administered intravenously, lapatinib, GDC-0941 and ABT-869 were given periorally by gavage. Tumor sizes were recorded twice weekly over the course of the study. Mouse body weights were also recorded twice weekly, and the mice were observed regularly. Tumor volume was measured in two dimensions (length and width) using Ultra Cal IV calipers (Model 54-10-111; Fred V. Fowler Co., Inc.; Newton, Mass.) and analyzed using Excel v.11.2 (Microsoft Corporation; Redmond, Wash.). Tumor inhibition graphs were plotted using KaleidaGraph, Version 3.6 (Synergy Software; Reading, Pa.). The tumor volume was calculated with formula: Tumor size (mm^3)=[…]
Tumor incidence (TI) was determined based on the number of measurable tumors remaining in each group at the end of the study. […] Data were analyzed and p-values were determined using the Dunnett's t-test with JMP statistical software, version 5.1.2 (SAS Institute; Cary, N.C.). Individual tumor volumes at end of study and mean tumor volume±SEM values were calculated using JMP statistical software, version 5.1.2. […]

[6] = FIG. 37 (2), GNE-390 1.0 mg/kg po qd×21
[7] = FIG. 37 (3), GNE-390 2.5 mg/kg po qd×21
[8] = FIG. 36 (2), GDC-0941 25 mg/kg po qd×21
[9] = FIG. 36 (3), GDC-0941 50 mg/kg po qd×21
[10] = FIG. 36 (4), GDC-0941 100 mg/kg po qd×21
[11] = pertuzumab 15 mg/kg, days 0, 7, 14
[12] = FIG. 16, T-DM1 15 mg/kg iv q3wk×2, 15 mg/kg
[13] = FIG. 17, T-DM1 15 mg/kg iv q3wk×2
[14] = FIG. 36 (5), T-DM1 3 mg/kg iv q3wk
[15] = FIG. 36 (6), T-DM1 10 mg/kg iv q3wk

Molecule: Cc1c(CN2CCN(C(=O)[C@H](C)O)CC2)sc2c(N3CCOCC3)nc(-c3cnc(N)nc3)nc12 [GNE-390, (S)-1-(4-((2-(2-aminopyrimidin-5-yl)-7-methyl-4-morpholinothieno[3,2-d]pyrimidin-6-yl)methyl)piperazin-1-yl)-2-hydroxypropan-1-one]
- complete response (CR) [1, 6]: 0
- partial responses (PR) [1, 6]: 0
- complete response (CR) [1, 7]: 0
- partial responses (PR) [1, 7]: 1

Molecule: CS(=O)(=O)CCNCc1ccc(-c2ccc3ncnc(Nc4ccc(OCc5cccc(F)c5)c(Cl)c4)c3c2)o1 [lapatinib, N-(3-chloro-4-(3-fluorobenzyloxy)phenyl)-6-(5-((2-(methylsulfonyl)ethylamino)methyl)furan-2-yl)quinazolin-4-amine, reference compound]
- single agent efficacy vs vehicle [2]: not different from vehicle

Molecule: CS(=O)(=O)N1CCN(Cc2cc3nc(-c4cccc5[nH]ncc45)nc(N4CCOCC4)c3s2)CC1 [GDC-0941, 4-(2-(1H-indazol-4-yl)-6-((4-(methylsulfonyl)piperazin-1-yl)methyl)thieno[3,2-d]pyrimidin-4-yl)morpholine]
- safety of the dose as a single agent [3]: safe as a single agent without any dose limiting toxicities
- complete response (CR) [1, 8]: 0
- partial responses (PR) [1, 8]: 0
- complete response (CR) [1, 9]: 0
- partial responses (PR) [1, 9]: 1
- complete response (CR) [1, 10]: 0
- partial responses (PR) [1, 10]: 0
- phospho-Akt and phospho-ERK [4]: inhibition
- phosphorylation of Rb and PRAS40 [4]: decreased phosphorylation

Molecule: pertuzumab: recombinant, humanized monoclonal antibody that inhibits dimerization of HER2 (CAS Reg. No. 380610-27-5) [reference compound]
- single agent efficacy vs vehicle [2]: not different from vehicle
- complete responses (CR) (KPL-4 tumors; [11]): 0
- partial responses (PR) (KPL-4 tumors; [11]): 0

Molecule: O=c1[nH]cc(F)c(=O)[nH]1 [5-FU, 5-fluoro-1H-pyrimidine-2,4-dione, reference compound]
- complete responses (CR) [5]: 0
- partial responses (PR) [5]: 0

Molecule: T-DM1
- single agent efficacy vs vehicle [2]: efficacious as a single agent
- efficacy vs vehicle by both time to tumor doubling and time to tumor endpoint ([2]; FIG. 15, p<0.01): significantly better than vehicle
- objective responses ([2]; FIG. 16, T-DM1 7.5 mg/kg iv q3wk×2): no objective responses
- complete response (CR) [2, 12]: 1 and 2
- partial responses (PR) [2, 12]: 6 and 5
- complete responses (CR) [2, 13]: 3
- partial responses (PR) [2, 13]: 6
- complete responses (CR) [5]: 0
- partial responses (PR) [5]: 1
- complete response (CR) [1, 14]: 1
- partial responses (PR) [1, 14]: 1
- complete response (CR) [1, 15]: 1
- partial responses (PR) [1, 15]: 8
- complete responses (CR) (KPL-4 tumors; T-DM1 0.3 mg/kg once on day 0): 0
- partial responses (PR) (KPL-4 tumors; T-DM1 0.3 mg/kg once on day 0): 0
- complete responses (CR) (KPL-4 tumors; T-DM1 1 mg/kg once on day 0): 0
- partial responses (PR) (KPL-4 tumors; T-DM1 1 mg/kg once on day 0): 1
- complete responses (CR) (KPL-4 tumors; T-DM1 3 mg/kg once on day 0): 0
- partial responses (PR) (KPL-4 tumors; T-DM1 3 mg/kg once on day 0): 7
- remaining tumors less than 50 mm^3 with no evidence of viable tumor cells (histology, end of study) (KPL-4 tumors; FIG. 11, T-DM1 5 mg/kg single iv, 5-FU 100 mg/kg qwk×3, pertuzumab 40 mg/kg qwk×4): 8 samples
- apoptosis (23 kDa PARP-cleavage fragment, Bcl-XL, activation of caspases 3 and 7) [4]: resulted in apoptosis
- phospho-Akt and phospho-ERK [4]: inhibition
- levels of the mitotic markers phospho-histone H3 and cyclin B1 ([4]; after treatment): increased levels

Molecule: CC(=O)O[C@@]12CO[C@@H]1C[C@H](O)[C@@]1(C)C(=O)[C@H](O)C3=C(C)[C@@H](OC(=O)[C@H](O)[C@@H](NC(=O)OC(C)(C)C)c4ccccc4)C[C@@](O)([C@@H](OC(=O)c4ccccc4)[C@H]21)C3(C)C [docetaxel, (2R,3S)—N-carboxy-3-phenylisoserine, N-tert-butyl ester, 13-ester with 5,20-epoxy-1,2,4,7,10,13-hexahydroxytax-11-en-9-one 4-acetate 2-benzoate, trihydrate, reference compound]
- partial responses (PR) ([2]; FIG. 16, docetaxel 30 mg/kg iv qwk×3): 2

Molecule: Cc1ccc(F)c(NC(=O)Nc2ccc(-c3cccc4[nH]nc(N)c34)cc2)c1 [ABT-869, 1-(4-(3-amino-1H-indazol-4-yl)phenyl)-3-(2-fluoro-5-methylphenyl)urea, reference compound]
- efficacy vs vehicle by time to tumor doubling ([2]; FIG. 15, ABT-869 5 mg/kg po bid×21): not different than vehicle
- efficacy vs vehicle by time to endpoint ([2]; FIG. 15, ABT-869 5 mg/kg po bid×21, p<0.01): significantly better than vehicle
- efficacy vs vehicle by both time to tumor doubling and time to tumor endpoint ([2]; FIG. 15, p<0.01): significantly better than vehicle
